One experiment deals with T1, Human HDAC2 (Homo sapiens, UniProt Q92769).
T1 construct: full length with C-terminal GST-tag; GST (C); host or cells: baculovirus expression system
The experiment in a line: HDAC2 biochemical assay, AMC-labeled peptide substrate. The following applies: read-out: HDAC Isoform IC50 (nM) 2. The procedure, abridged: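 Full-length human HDAC2 with C-terminal GST tag, baculovirus-expressed, at 0.07 ng/ul with 50 μM RHKK(Ac)AMC substrate in Tris-HCl pH8.0 buffer with BSA, 1% DMSO final. Incubated 1 hour at 30° C with compounds, then developer added; fluorescence read at 360/460 Ex/Em.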

The target in the next experiment is T2, Human HDAC9 (Homo sapiens, UniProt Q9UKV0).
T2 construct: amino acids 604-1066 with C-terminal His tag; His (C); host or cells: baculovirus expression system
The experiment in a line: HDAC9 biochemical assay, class IIa-specific substrate. The note with it: read-out: HDAC Isoform IC50 (nM) 9. In short, it runs like this: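 HDAC9 residues 604-1066 (C-terminal His tag, baculovirus-expressed) at 0.06 ng/ul with 50 μM class IIa substrate Boc-Lys(trifluoroacetyl)-AMC in Tris-HCl pH 8.0 buffer with BSA and 1% DMSO. 30 min at room temperature, then developer added; fluorescence read at 360/460 nm Ex/Em.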

Another experiment concerns the target T3, Human HDAC8 (Homo sapiens, UniProt Q9BY41).
T3 construct: full length with C-terminal His tag, MW=42.6 kDa; His (C); host or cells: baculovirus expression system
T3 sequence (Q9BY41 1-377): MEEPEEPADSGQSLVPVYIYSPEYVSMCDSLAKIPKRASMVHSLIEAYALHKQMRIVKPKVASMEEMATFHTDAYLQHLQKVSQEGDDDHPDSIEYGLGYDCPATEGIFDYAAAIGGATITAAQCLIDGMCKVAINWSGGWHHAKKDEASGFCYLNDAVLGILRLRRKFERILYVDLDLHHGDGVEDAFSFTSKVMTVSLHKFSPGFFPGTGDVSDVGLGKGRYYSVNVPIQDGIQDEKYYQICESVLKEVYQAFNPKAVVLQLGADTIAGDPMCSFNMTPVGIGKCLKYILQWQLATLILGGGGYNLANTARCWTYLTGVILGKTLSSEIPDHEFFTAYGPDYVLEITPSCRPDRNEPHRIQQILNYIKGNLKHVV
The experiment in a line: HDAC8 biochemical assay, AMC-labeled peptide substrate. The note with it: read-out: HDAC Isoform IC50 (nM) 8. The procedure, abridged:
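Full-length human HDAC8 with C-terminal His tag, baculovirus-expressed, 1 ng/ul, with 100 µM RHK(Ac)K(Ac)AMC substrate in Tris-HCl pH8.0 buffer with BSA, 1% DMSO. Incubated 2 h at 30° C, then developer added to cleave deacetylated substrate; fluorescence read at 360/460 Ex/Em.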

The values below come from patent US20210038607A1, “OXADIAZOLYLTHIOPHENE DERIVATIVES USEFUL AS HISTONE DEACETYLASE INHIBITORS” (Karus Therapeutics Limited, priority 2018, published 2021).

As a reminder, the IC50 is the midpoint of a concentration-inhibition curve.

T1 sequence (Q92769 whole entry): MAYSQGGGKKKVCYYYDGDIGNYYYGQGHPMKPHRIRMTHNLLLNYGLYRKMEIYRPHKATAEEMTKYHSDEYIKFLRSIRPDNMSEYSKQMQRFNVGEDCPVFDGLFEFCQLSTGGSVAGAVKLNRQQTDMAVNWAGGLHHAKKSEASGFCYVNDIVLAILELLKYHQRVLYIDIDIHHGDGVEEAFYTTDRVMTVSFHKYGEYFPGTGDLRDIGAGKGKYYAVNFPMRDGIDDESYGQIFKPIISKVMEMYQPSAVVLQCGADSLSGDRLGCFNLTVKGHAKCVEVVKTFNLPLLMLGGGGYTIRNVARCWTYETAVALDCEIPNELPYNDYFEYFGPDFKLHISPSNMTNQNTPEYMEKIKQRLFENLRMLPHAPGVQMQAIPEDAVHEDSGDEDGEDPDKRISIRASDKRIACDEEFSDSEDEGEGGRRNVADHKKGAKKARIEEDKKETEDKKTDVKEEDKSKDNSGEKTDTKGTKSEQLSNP
T2 sequence (Q9UKV0 604-1066 isoform Q9UKV0-5): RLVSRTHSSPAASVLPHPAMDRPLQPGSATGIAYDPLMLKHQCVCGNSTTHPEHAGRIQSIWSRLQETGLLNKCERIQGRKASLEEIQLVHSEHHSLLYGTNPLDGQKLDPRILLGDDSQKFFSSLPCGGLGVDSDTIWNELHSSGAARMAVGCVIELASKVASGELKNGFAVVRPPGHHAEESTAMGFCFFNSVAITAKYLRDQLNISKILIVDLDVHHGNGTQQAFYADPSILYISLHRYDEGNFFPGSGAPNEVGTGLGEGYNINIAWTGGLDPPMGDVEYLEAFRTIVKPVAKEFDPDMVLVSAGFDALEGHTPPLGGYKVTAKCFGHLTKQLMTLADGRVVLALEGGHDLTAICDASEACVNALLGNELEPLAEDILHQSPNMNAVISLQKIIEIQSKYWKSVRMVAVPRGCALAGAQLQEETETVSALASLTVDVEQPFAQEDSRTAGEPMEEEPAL

On to `FC(F)(F)c1ccc(N(Cc2ccc(-c3noc(C(F)(F)F)n3)s2)c2cnccn2)nn1` [Example DH, N-(Pyrazin-2-yl)-6-(trifluoromethyl)-N-({5-[5-(trifluoromethyl)-1,2,4-oxadiazol-3-yl]thiophen-2-yl}methyl)pyridazin-3-amine], for which the values for the concentration for half-maximal inhibition (IC50) on Human HDAC2, at Human HDAC9 and on Human HDAC8 were above 10000 nM, at most 10000 nM and at most 10000 nM, respectively.

As for `FC(F)(F)c1nc(-c2ccc(CN(c3ccncn3)c3cnccn3)s2)no1` [Example BZ, N-(Pyrazin-2-yl)-N-({5-[5-(trifluoromethyl)-1,2,4-oxadiazol-3-yl]thiophen-2-yl}methyl)pyrimidin-4-amine], the 50% inhibitory concentration (IC50) was above 10000 nM on Human HDAC2, at most 500 nM at Human HDAC9 and at most 10000 nM at Human HDAC8.

Consider `FC(F)(F)c1nc(-c2ccc(CN(c3cncnc3)c3cnccn3)s2)no1` [Example CR, N-(Pyrazin-2-yl)-N-({5-[5-(trifluoromethyl)-1,2,4-oxadiazol-3-yl]thiophen-2-yl}methyl)pyrimidin-5-amine], for which the IC50 at Human HDAC2 is above 10000 nM; at Human HDAC9, at most 500 nM; at Human HDAC8 it was at most 10000 nM.

On to `FC(F)(F)c1nc(-c2ccc(CN(c3ccccn3)c3cnccn3)s2)no1` [Example V, N-(Pyridin-2-yl)-N-({5-[5-(trifluoromethyl)-1,2,4-oxadiazol-3-yl]thiophen-2-yl}methyl)pyrazin-2-amine], for which the results for the concentration for half-maximal inhibition (IC50) on Human HDAC2, at Human HDAC9 and on Human HDAC8 were above 10000 nM, at most 10000 nM and above 10000 nM, respectively.

On to `FC(F)(F)c1nc(-c2ccc(CN(c3cnccn3)c3ccc(N4CCCC4)nn3)s2)no1` [Example DI, N-(Pyrazin-2-yl)-6-(pyrrolidin-1-yl)-N-({5-[5-(trifluoromethyl)-1,2,4-oxadiazol-3-yl]thiophen-2-yl}methyl)pyridazin-3-amine], for which the figures for the IC50 on Human HDAC2, on Human HDAC9 and on Human HDAC8 were above 10000 nM, at most 10000 nM and at most 10000 nM, respectively.

`CS(=O)(=O)c1nccc(N(Cc2ccc(-c3noc(C(F)(F)F)n3)s2)c2cnccn2)n1` [Example CE, 2-Methanesulfonyl-N-(pyrazin-2-yl)-N-({5-[5-(trifluoromethyl)-1,2,4-oxadiazol-3-yl]thiophen-2-yl}methyl)pyrimidin-4-amine]: the IC50 at Human HDAC9 was at most 10000 nM.

`CS(=O)(=O)c1ccc(N(Cc2ccc(-c3noc(C(F)(F)F)n3)s2)c2cnccn2)nn1` [Example DL, 6-Methanesulfonyl-N-(pyrazin-2-yl)-N-({5-[5-(trifluoromethyl)-1,2,4-oxadiazol-3-yl]thiophen-2-yl}methyl)pyridazin-3-amine]: the values for the 50% inhibitory concentration (IC50) at Human HDAC2, at Human HDAC9 and at Human HDAC8 were above 10000 nM, at most 10000 nM and at most 10000 nM, respectively.
